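Five compound concentrations were applied to cells in 96-well plates for 48 hours; endpoints were derived by simple linear interpolation of the resulting dose-response curve. TGI denotes the concentration required for complete inhibition of growth.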
Experiments:
Test in all cases: NCI anticancer screen, dose series, 48 h
COLO 205 colon = test system: COLO 205 colon
TK-10 renal = test system: TK-10 renal
HCT-116 colon = test system: HCT-116 colon
HT29 colon = test system: HT29 colon
SR leukemia = test system: SR leukemia
M19-MEL melanoma = test system: M19-MEL melanoma
M14 melanoma = test system: M14 melanoma
CCRF-CEM leukemia = test system: CCRF-CEM leukemia
KM12 colon = test system: KM12 colon
NCI-H226 lung = test system: NCI-H226 lung
SNB-75 CNS = test system: SNB-75 CNS
LOX IMVI melanoma = test system: LOX IMVI melanoma
SK-OV-3 ovarian = test system: SK-OV-3 ovarian
SF-268 CNS = test system: SF-268 CNS
K-562 leukemia = test system: K-562 leukemia
HL-60(TB) leukemia = test system: HL-60(TB) leukemia
LXFL 529 NSCLC = test system: LXFL 529 NSCLC
HOP-62 NSCLC = test system: HOP-62 NSCLC
SW-620 colon = test system: SW-620 colon
NCI-H460 lung = test system: NCI-H460 lung
RPMI-8226 leukemia = test system: RPMI-8226 leukemia
A498 renal = test system: A498 renal
OVCAR-5 ovarian = test system: OVCAR-5 ovarian
DMS 114 small cell lung = test system: DMS 114 small cell lung
NCI-H23 lung = test system: NCI-H23 lung
SN12C renal = test system: SN12C renal
SK-MEL-2 melanoma = test system: SK-MEL-2 melanoma
SF-295 CNS = test system: SF-295 CNS
SK-MEL-28 melanoma = test system: SK-MEL-28 melanoma
OVCAR-8 ovarian = test system: OVCAR-8 ovarian
SK-MEL-5 melanoma = test system: SK-MEL-5 melanoma
KM20L2 colon = test system: KM20L2 colon
U251 CNS = test system: U251 CNS
786-0 renal = test system: 786-0 renal
NCI-H522 lung = test system: NCI-H522 lung
XF 498 CNS = test system: XF 498 CNS
RXF-631 renal = test system: RXF-631 renal
SF-539 CNS = test system: SF-539 CNS
UO-31 renal = test system: UO-31 renal
SNB-19 CNS = test system: SNB-19 CNS
UACC-62 melanoma = test system: UACC-62 melanoma
OVCAR-3 ovarian = test system: OVCAR-3 ovarian
MOLT-4 leukemia = test system: MOLT-4 leukemia
RXF 393 renal = test system: RXF 393 renal
EKVX NSCLC = test system: EKVX NSCLC
UACC-257 melanoma = test system: UACC-257 melanoma
IGROV1 ovarian = test system: IGROV1 ovarian
ACHN renal = test system: ACHN renal
HCT-15 colon = test system: HCT-15 colon
HOP-18 NSCLC = test system: HOP-18 NSCLC
HOP-92 NSCLC = test system: HOP-92 NSCLC
A549 NSCLC = test system: A549 NSCLC
MALME-3M melanoma = test system: MALME-3M melanoma
DLD-1 colon = test system: DLD-1 colon
OVCAR-4 ovarian = test system: OVCAR-4 ovarian
SNB-78 CNS = test system: SNB-78 CNS
CAKI-1 renal = test system: CAKI-1 renal
HCC-2998 colon = test system: HCC-2998 colon

O=C1C(c2ccccc2)=[N+]([O-])c2ccc(Cl)cc21
TGI (COLO 205 colon): 28.9 µM
TGI (TK-10 renal): 77.9 µM
TGI (HCT-116 colon): 34.7 µM
TGI (HT29 colon): 56.1 µM
TGI (SR leukemia): > 100 µM
TGI (M19-MEL melanoma): 42.1 µM
TGI (M14 melanoma): > 100 µM
TGI (CCRF-CEM leukemia): > 100 µM
TGI (KM12 colon): > 100 µM
TGI (NCI-H226 lung): 49.9 µM
TGI (SNB-75 CNS): > 100 µM
TGI (LOX IMVI melanoma): 32.7 µM
TGI (SK-OV-3 ovarian): > 100 µM
TGI (SF-268 CNS): 62.4 µM
TGI (K-562 leukemia): > 100 µM
TGI (HL-60(TB) leukemia): 38.5 µM
TGI (LXFL 529 NSCLC): 34.9 µM
TGI (HOP-62 NSCLC): > 100 µM
TGI (SW-620 colon): 93.3 µM
TGI (NCI-H460 lung): > 100 µM
TGI (RPMI-8226 leukemia): > 100 µM
TGI (A498 renal): > 100 µM
TGI (OVCAR-5 ovarian): 61.5 µM
TGI (DMS 114 small cell lung): 25.6 µM
TGI (NCI-H23 lung): > 100 µM
TGI (SN12C renal): 67.4 µM
TGI (SK-MEL-2 melanoma): > 100 µM
TGI (SF-295 CNS): > 100 µM
TGI (SK-MEL-28 melanoma): 48.8 µM
TGI (OVCAR-8 ovarian): 30.5 µM
TGI (SK-MEL-5 melanoma): 35.2 µM
TGI (KM20L2 colon): > 100 µM
TGI (U251 CNS): 65.1 µM
TGI (786-0 renal): > 100 µM
TGI (NCI-H522 lung): 31 µM
TGI (XF 498 CNS): 35.8 µM
TGI (RXF-631 renal): 86.2 µM
TGI (SF-539 CNS): 38.5 µM
TGI (UO-31 renal): > 100 µM
TGI (SNB-19 CNS): > 100 µM
TGI (UACC-62 melanoma): 35 µM
TGI (OVCAR-3 ovarian): 59.9 µM
TGI (MOLT-4 leukemia): 81.6 µM
TGI (RXF 393 renal): 29.1 µM
TGI (EKVX NSCLC): 47.3 µM
TGI (UACC-257 melanoma): 46.8 µM
TGI (IGROV1 ovarian): 57 µM
TGI (ACHN renal): 56.7 µM
TGI (HCT-15 colon): 64.2 µM
TGI (HOP-18 NSCLC): > 100 µM
TGI (HOP-92 NSCLC): 0.096 µM
TGI (A549 NSCLC): > 100 µM
TGI (MALME-3M melanoma): 61.8 µM
TGI (DLD-1 colon): 51.3 µM

CC(=O)/C(=C\c1ccccc1)C(=O)Nc1ccccc1
TGI (TK-10 renal): > 100 µM
TGI (HCT-116 colon): > 100 µM
TGI (HT29 colon): > 100 µM
TGI (SR leukemia): > 100 µM
TGI (M19-MEL melanoma): > 100 µM
TGI (M14 melanoma): > 100 µM
TGI (CCRF-CEM leukemia): > 100 µM
TGI (KM12 colon): > 100 µM
TGI (NCI-H226 lung): > 100 µM
TGI (LOX IMVI melanoma): > 100 µM
TGI (SK-OV-3 ovarian): > 100 µM
TGI (SF-268 CNS): > 100 µM
TGI (K-562 leukemia): > 100 µM
TGI (HL-60(TB) leukemia): > 100 µM
TGI (LXFL 529 NSCLC): > 100 µM
TGI (HOP-62 NSCLC): > 100 µM
TGI (SW-620 colon): > 100 µM
TGI (OVCAR-4 ovarian): > 100 µM
TGI (NCI-H460 lung): > 100 µM
TGI (RPMI-8226 leukemia): > 100 µM
TGI (OVCAR-5 ovarian): > 100 µM
TGI (DMS 114 small cell lung): > 100 µM
TGI (NCI-H23 lung): > 100 µM
TGI (SN12C renal): > 100 µM
TGI (SNB-78 CNS): > 100 µM
TGI (CAKI-1 renal): > 100 µM
TGI (SK-MEL-2 melanoma): > 100 µM
TGI (SF-295 CNS): > 100 µM
TGI (OVCAR-8 ovarian): > 100 µM
TGI (SK-MEL-5 melanoma): > 100 µM
TGI (U251 CNS): > 100 µM
TGI (786-0 renal): > 100 µM
TGI (NCI-H522 lung): > 100 µM
TGI (XF 498 CNS): > 100 µM
TGI (RXF-631 renal): > 100 µM
TGI (SF-539 CNS): > 100 µM
TGI (UO-31 renal): > 100 µM
TGI (SNB-19 CNS): > 100 µM
TGI (UACC-62 melanoma): > 100 µM
TGI (OVCAR-3 ovarian): > 100 µM
TGI (MOLT-4 leukemia): > 100 µM
TGI (RXF 393 renal): > 100 µM
TGI (EKVX NSCLC): > 100 µM
TGI (UACC-257 melanoma): > 100 µM
TGI (IGROV1 ovarian): > 100 µM
TGI (ACHN renal): > 100 µM
TGI (HCC-2998 colon): > 100 µM
TGI (HOP-18 NSCLC): > 100 µM
TGI (HOP-92 NSCLC): > 100 µM
TGI (A549 NSCLC): > 100 µM
TGI (MALME-3M melanoma): > 100 µM
TGI (DLD-1 colon): > 100 µM

COC(=O)[C@]1(C)CCC[C@]2(C)C3CC4OOC3(C=C4C(C)(C)O)CCC21 (some centres not stated)
TGI (COLO 205 colon): > 100 µM
TGI (TK-10 renal): > 100 µM
TGI (HCT-116 colon): > 100 µM
TGI (HT29 colon): 56.9 µM
TGI (M19-MEL melanoma): > 100 µM
TGI (M14 melanoma): > 100 µM
TGI (CCRF-CEM leukemia): 57.8 µM
TGI (KM12 colon): > 100 µM
TGI (NCI-H226 lung): > 100 µM
TGI (LOX IMVI melanoma): > 100 µM
TGI (SK-OV-3 ovarian): > 100 µM
TGI (SF-268 CNS): > 100 µM
TGI (K-562 leukemia): 64.3 µM
TGI (HL-60(TB) leukemia): 32 µM
TGI (LXFL 529 NSCLC): 65.6 µM
TGI (HOP-62 NSCLC): > 100 µM
TGI (SW-620 colon): > 100 µM
TGI (OVCAR-4 ovarian): > 100 µM
TGI (NCI-H460 lung): > 100 µM
TGI (RPMI-8226 leukemia): 37.3 µM
TGI (A498 renal): > 100 µM
TGI (OVCAR-5 ovarian): > 100 µM
TGI (DMS 114 small cell lung): > 100 µM
TGI (NCI-H23 lung): > 100 µM
TGI (SN12C renal): > 100 µM
TGI (SNB-78 CNS): > 100 µM
TGI (CAKI-1 renal): > 100 µM
TGI (SK-MEL-2 melanoma): > 100 µM
TGI (SF-295 CNS): > 100 µM
TGI (OVCAR-8 ovarian): > 100 µM
TGI (SK-MEL-5 melanoma): > 100 µM
TGI (KM20L2 colon): > 100 µM
TGI (U251 CNS): > 100 µM
TGI (786-0 renal): > 100 µM
TGI (NCI-H522 lung): 47.3 µM
TGI (XF 498 CNS): 46.7 µM
TGI (RXF-631 renal): > 100 µM
TGI (SF-539 CNS): > 100 µM
TGI (SNB-19 CNS): > 100 µM
TGI (UACC-62 melanoma): > 100 µM
TGI (OVCAR-3 ovarian): > 100 µM
TGI (MOLT-4 leukemia): 67.3 µM
TGI (EKVX NSCLC): > 100 µM
TGI (UACC-257 melanoma): > 100 µM
TGI (IGROV1 ovarian): > 100 µM
TGI (ACHN renal): > 100 µM
TGI (HCT-15 colon): > 100 µM
TGI (A549 NSCLC): > 100 µM
TGI (MALME-3M melanoma): > 100 µM
TGI (DLD-1 colon): > 100 µM

NC(=O)/C(=N\NC(=O)c1cc2ccccc2cc1O)C1C(=O)N(c2ccccc2)N=C1N (configuration not stated)
TGI (COLO 205 colon): > 100 µM
TGI (TK-10 renal): > 100 µM
TGI (HCT-116 colon): > 100 µM
TGI (HT29 colon): > 100 µM
TGI (M19-MEL melanoma): > 100 µM
TGI (M14 melanoma): > 100 µM
TGI (CCRF-CEM leukemia): 87.6 µM
TGI (KM12 colon): > 100 µM
TGI (NCI-H226 lung): > 100 µM
TGI (SNB-75 CNS): > 100 µM
TGI (LOX IMVI melanoma): > 100 µM
TGI (SF-268 CNS): > 100 µM
TGI (HL-60(TB) leukemia): 47.2 µM
TGI (LXFL 529 NSCLC): > 100 µM
TGI (HOP-62 NSCLC): > 100 µM
TGI (SW-620 colon): > 100 µM
TGI (OVCAR-4 ovarian): > 100 µM
TGI (NCI-H460 lung): > 100 µM
TGI (RPMI-8226 leukemia): > 100 µM
TGI (A498 renal): 37.5 µM
TGI (OVCAR-5 ovarian): 54 µM
TGI (DMS 114 small cell lung): 53.2 µM
TGI (NCI-H23 lung): 56.5 µM
TGI (SN12C renal): > 100 µM
TGI (SNB-78 CNS): > 100 µM
TGI (SK-MEL-2 melanoma): 83 µM
TGI (SF-295 CNS): > 100 µM
TGI (SK-MEL-28 melanoma): > 100 µM
TGI (OVCAR-8 ovarian): > 100 µM
TGI (SK-MEL-5 melanoma): 37.2 µM
TGI (KM20L2 colon): > 100 µM
TGI (U251 CNS): > 100 µM
TGI (786-0 renal): > 100 µM
TGI (XF 498 CNS): > 100 µM
TGI (RXF-631 renal): > 100 µM
TGI (UO-31 renal): > 100 µM
TGI (SNB-19 CNS): > 100 µM
TGI (UACC-62 melanoma): 35.9 µM
TGI (OVCAR-3 ovarian): > 100 µM
TGI (MOLT-4 leukemia): 94.5 µM
TGI (RXF 393 renal): > 100 µM
TGI (EKVX NSCLC): > 100 µM
TGI (UACC-257 melanoma): 65 µM
TGI (IGROV1 ovarian): > 100 µM
TGI (ACHN renal): > 100 µM
TGI (HCC-2998 colon): > 100 µM
TGI (HOP-18 NSCLC): > 100 µM
TGI (HOP-92 NSCLC): 94.6 µM
TGI (A549 NSCLC): > 100 µM
TGI (MALME-3M melanoma): > 100 µM
TGI (DLD-1 colon): > 100 µM
